Columns and labels:
Format in all cases: in vivo
Alopecurus [1] = assay: Pre-emergence test, Alopecurus; details: application rate 250 g/ha, after three weeks
Description: (§1) Pre-emergence Test Solvent: 3 parts by weight of acetone Emulsifier: 1 part by weight of alkylaryl polyglycol ether To produce a suitable preparation of active compound, 1 part by weight of active compound is mixed with the stated amount of solvent, the stated amount of emulsifier is added and the concentrate is diluted with water to the desired concentration. Seeds of the test plants are sown in normal soil and, after 24 hours, watered with the preparation of the active compound. It is expedient to keep constant the amount of water per unit area. The concentration of the active compound in the preparation is of no importance, only the amount of active compound applied per unit area being decisive. After three weeks, the degree of damage to the plants is rated in % damage in comparison to the development of the untreated control. The figures denote: 0%=no action (like untreated control) 100%=total destruction

Veronica = assay: Pre-emergence test, Veronica; details: application rate 250 g/ha, after three weeks
Description: as §1

[2] = test system: greenhouse red spider mite (Tetranychus urticae); assay: Tetranychus test (OP-resistant); details: after 13 days; active compound concentration 0.1%; infested bean shoots dipped
Description: Tetranychus Test (OP-resistant)
(§2) Solvent: 7 parts by weight of dimethylformamide
(§3) Emulsifier: 1 part by weight of alkylaryl polyglycol ether
(§4) To produce a suitable preparation of active compound, 1 part by weight of active compound is mixed with the stated amount of solvent and the stated amount of emulsifier, and the concentrate is diluted with water to the desired concentration.
Bean shoots (Phaseolus vulgaris) which are severely infested with the greenhouse red spider mite (Tetranychus urticae) are dipped into a preparation of the active compound of the desired concentration.
After the specified period of time, the destruction in % is determined. 100% means that all the spider mites have been killed; 0% means that none of the spider mites have been killed.

Digitaria = assay: Pre-emergence test, Digitaria; details: application rate 250 g/ha, after three weeks
Description: as §1

soya beans [3] = assay: Pre-emergence test, tolerance by soya beans; details: application rate 250 g/ha
Description: as §1

Echinochloa = assay: Pre-emergence test, Echinochloa; details: application rate 250 g/ha, after three weeks
Description: as §1

[4] = test system: green rice leafhopper (Nephotettix cinticeps); assay: Nephotettix test; details: after 6 days; active compound concentration 0.1%; rice seedlings dipped
Description: as §2, §3, §4
Rice seedlings (Oryza sativa) are treated by being dipped into the preparation of active compound of the desired concentration and are infested with the green rice leafhopper (Nephotettix cinticeps) while the leaves are still moist.
After the specified period of time, the destruction in % is determined. 100% means that all the leafhoppers have been killed; 0% means that none of the leafhoppers have been killed.

Chenopodium = assay: Pre-emergence test, Chenopodium; details: application rate 250 g/ha, after three weeks
Description: as §1

soya beans [5] = assay: Post-emergence test, tolerance by soya beans; details: application rate 125 g/ha
Description: (§5) Post-emergence Test Solvent: 5 parts by weight of acetone Emulsifier: 1 part by weight of alkylaryl polyglycol ether To produce a suitable preparation of active compound, 1 part by weight of active compound is mixed with the stated amount of solvent, the stated amount of emulsifier is added and the concentrate is diluted with water to the desired concentration. Test plants which have a height of 5-15 cm are sprayed with the preparation of the active compound in such a way as to apply the particular amounts of active compound desired per unit area. The concentration of the spray liquor is so chosen that the particular amounts of active compound desired are applied in 2000 l of water/ha. After three weeks, the degree of damage to the plants is. rated in % damage in comparison to the development of the untreated control. The figures denote: 0%=no action (like untreated control) 100%=total destruction

Alopecurus [6] = assay: Post-emergence test, Alopecurus; details: application rate 125 g/ha, after three weeks
Description: as §5

Avena fatua = assay: Post-emergence test, Avena fatua; details: application rate 125 g/ha, after three weeks
Description: as §5

Setaria = assay: Post-emergence test, Setaria; details: application rate 125 g/ha, after three weeks
Description: as §5

maize = assay: Pre-emergence test, tolerance by maize; details: application rate 250 g/ha
Description: as §1

Abutilon = assay: Pre-emergence test, Abutilon; details: application rate 250 g/ha, after three weeks
Description: as §1

Beta vulgaris = assay: Pre-emergence test, tolerance by Beta vulgaris; details: application rate 4000 g/ha
Description: as §1

Alopecurus myosuroides = assay: Pre-emergence test, Alopecurus myosuroides; details: application rate 4000 g/ha, after three weeks
Description: as §1

[7] = test system: Boophilis Microplus Resistant/SP-resistant Parkhurst Strain; assay: Test with Boophilis Microplus resistant/SP-resistant Parkhurst strain; details: 20 μg/animal injected into the abdomen; adult females
Description: Test with Boophilis Microplus Resistant/SP-resistant Parkhurst Strain
Test animals: adult females which have sucked themselves full
Solvent: dimethyl sulphoxide
20 mg of active substance are dissolved in 1 ml of dimethyl sulphoxide, and lesser concentrations are prepared by dilution with the same solvent.
The test is carried out in 5 replications. 1 μl of the solutions is injected into the abdomen, and the animals are transferred into dishes and kept in a controlled-environment cabinet. The activity is determined via the inhibition of oviposition. 100% means that no tick has deposited eggs.

## Cc1cc(C)c(C2=C(O)C3(CCC(C)CC3)NC2=O)c(C#N)c1 (single isomer, unassigned) [Example I-1-a-4]
Alopecurus [1]
  damage to Alopecurus: 100%
Veronica
  damage to Veronica: 100%
[2]
  activity (destruction in %): 100%
Digitaria
  damage to Digitaria: 100%
Soya beans [3]
  tolerance by soya beans: good tolerance
Echinochloa
  damage to Echinochloa: 100%
[4]
  destruction in %: 100%
Chenopodium
  damage to Chenopodium: 100%

## CCc1cc(C#N)cc(C)c1C1=C(O)C2(CCC(C)CC2)NC1=O (single isomer, unassigned) [Example I-1-a-5]
Soya beans [5]
  tolerance by soya beans: good tolerance
[2]
  activity (destruction in %): 100%
Alopecurus [6]
  damage to Alopecurus: at least 80%
[4]
  destruction in %: 100%
Avena fatua
  damage to Avena fatua: at least 80%
Setaria
  damage to Setaria: at least 80%

## Cc1cc(C#N)cc(C)c1C1=C(O)C2(CCC(C)CC2)NC1=O (single isomer, unassigned) [Example I-1-a-6]
[2]
  activity (destruction in %): 100%
maize
  tolerance by maize: good tolerance
Abutilon
  damage to Abutilon: 80%
[4]
  destruction in %: 100%

## CC1CCC2(CC1)NC(=O)C(c1ccc(S(C)(=O)=O)cc1Cl)=C2O (stereo not drawn) [Example I-1-a-1]
Beta vulgaris
  tolerance by Beta vulgaris: good tolerance
Alopecurus myosuroides
  damage to Alopecurus myosuroides: 80%
[7]
  activity (inhibition of oviposition): 100%
[4]
  destruction in %: 100%

## CCOC(=O)OC1=C(c2ccc(S(C)(=O)=O)cc2Cl)C(=O)NC12CCC(C)CC2 (stereo not drawn) [Example I-1-c-1]
Beta vulgaris
  tolerance by Beta vulgaris: good tolerance
Alopecurus myosuroides
  damage to Alopecurus myosuroides: 80%

Source: patent US6746990B2, “2-phenyl-substituted heterocyclic 1,3-ketoenols as herbicides and pesticides” (Bayer Aktiengesellschaft, priority 1995, dated 2004)
